# From US8686177B2, “LPA receptor agonists and antagonists” (RxBio, Inc., priority 2008, dated 2014)
# Tests used:
# LPA1 receptor = target: T1, LPA1 receptor (Homo sapiens, UniProt Q92633); test: LPA-induced Ca2+ transients in RH7777 cells stably expressing LPA1 (agonism/antagonism); type: cell-based; conditions: RH7777 cells expressing LPA1, compared to LPA 18:1
# T1 construct: expressed in transfected cells
# Description: (§1) RH7777 cells stably expressing either LPA1, LPA2 or LPA3 or PC-3 cells were plated on poly-D lysine-coated black wall clear bottom 96-well plates (Becton Dickinson, San Jose, Calif.) with a density of 50000 cells/well, and cultured overnight. The culture medium (DMEM containing 10% FBS) was then replaced with modified Krebs solution (120 mM NaCl, 5 mM KCl, 0.62 mM MgSO4, 1.8 mM CaCl2, 10 mM HEPES, 6 mM glucose, pH 7.4) and the cells were serum starved for 6-8 hours (12 h for PC-3 cells). […] Changes in intracellular Ca^2+ concentration were monitored by measuring the ratio of emitted light intensity at 520 nm in response to excitation by 340 nm and 380 nm wavelength lights, respectively. Each well was monitored for 80-120 seconds. […] Time courses were recorded using the SoftMax Pro software (Molecular Devices, Sunnyvale, Calif.). Ca^+ transients were quantified automatically by calculating the difference between maximum and baseline ratio values for each well.
# (§2) These new analogs were evaluated as agonists and antagonists with respect to LPA1-3. […]
# IEC-6 cells [1] = test: Camptothecin-induced DNA fragmentation in IEC-6 cells (Example 8, Cell Death Detection ELISA); type: cell-based; conditions: 20 μM camptothecin; LPA and FAP 12 at 10 μM
# Description: IEC-6 cells were grown in DMEM medium supplemented with 5% fetal bovine serum, insulin (10 μg/ml), gentamycin sulfate (50 μg/ml), and incubated at 37° C. in a humidified 90% air-10% CO2 atmosphere. Medium was changed every other day. Sub-confluent cells were washed twice and replaced by DMEM without serum the night before experiments.
# Damage and IEC-6 cell apoptosis was induced via either γ-irradiation or chemotherapy. 20 Gy single dose of [^137Cs] source γ-irradiation was used in all experiments. […] In some experiments, LPA was added at different times before or after irradiation. Treatment with 20 μM camptothecin of IEC-6 cells induces DNA fragmentation as measured by the ELISA assay at 16 h after treatment. DNA fragmentation was quantified using the Cell Death Detection ELISA kit from Boehringer (Indianapolis, Ind.) according to the instructions of the manufacturer. Samples were run in triplicate. A duplicate of the sample was used to quantify protein concentration using the BCA kit from Pierce (Rockford, Ill.). DNA fragmentation was expressed as absorbance units per μg protein per minute.
# LPA2 receptor = target: T2, LPA2 receptor (Homo sapiens, UniProt Q9HBW0); test: LPA-induced Ca2+ transients in RH7777 cells stably expressing LPA2 (agonism/antagonism); type: cell-based; conditions: RH7777 cells expressing LPA2, compared to LPA 18:1
# T2 construct: expressed in transfected cells
# T2 sequence (Q9HBW0 whole entry): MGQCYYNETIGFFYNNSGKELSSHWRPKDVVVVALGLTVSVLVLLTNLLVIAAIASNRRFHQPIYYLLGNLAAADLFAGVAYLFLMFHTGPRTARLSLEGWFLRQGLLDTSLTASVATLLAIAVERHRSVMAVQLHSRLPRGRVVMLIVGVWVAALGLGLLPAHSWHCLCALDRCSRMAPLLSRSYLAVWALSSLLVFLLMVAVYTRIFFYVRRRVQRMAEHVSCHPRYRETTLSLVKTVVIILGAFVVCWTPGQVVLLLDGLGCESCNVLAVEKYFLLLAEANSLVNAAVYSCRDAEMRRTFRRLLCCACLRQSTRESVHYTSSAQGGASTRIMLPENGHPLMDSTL
# Description: as §1, §2
# LPA3 receptor = target: T3, LPA3 receptor (Homo sapiens, UniProt Q9UBY5); test: LPA-induced Ca2+ transients in RH7777 cells stably expressing LPA3 (agonism/antagonism); type: cell-based; conditions: RH7777 cells expressing LPA3, compared to LPA 18:1
# T3 construct: expressed in transfected cells
# T3 sequence (Q9UBY5 1-353): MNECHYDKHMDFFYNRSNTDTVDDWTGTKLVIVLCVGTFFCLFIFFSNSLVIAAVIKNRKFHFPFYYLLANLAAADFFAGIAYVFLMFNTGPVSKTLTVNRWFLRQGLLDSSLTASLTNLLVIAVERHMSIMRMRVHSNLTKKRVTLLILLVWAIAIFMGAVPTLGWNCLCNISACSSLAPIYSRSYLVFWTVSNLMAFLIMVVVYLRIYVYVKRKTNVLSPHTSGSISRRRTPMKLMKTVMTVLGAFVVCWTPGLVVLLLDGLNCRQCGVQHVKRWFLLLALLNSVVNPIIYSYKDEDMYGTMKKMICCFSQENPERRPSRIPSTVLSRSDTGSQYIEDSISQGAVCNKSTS
# Description: as §1, §2
# [2] = tested on: small intestine crypts of irradiated mice; test: Crypt survival in whole-body gamma-irradiated mice (Example 9); type: in vivo
# Description: ICR strain male mice (Harlan Laboratories, body weight 30-33 g) on a 12 h light/dark cycle and otherwise maintained on a standard laboratory chow ad libitum were starved for 16 h prior to treatment. WBI was done with a 12 Gy or 15 Gy dose using Cs^137 source at a dose rate of 1.9 Gy per minute. Groups of four mice received either 250 μl of 1 mM LPA complexed with 100 μM BSA dissolved in Hanks basal salt solution or the BSA vehicle alone 2 h prior to irradiation.
# For detection of the apoptotic bodies, mice were euthanized with carbon dioxide inhalation 4 h after irradiation and the small intestine was dissected and fixed in neutral phosphate buffered isotonic 10% formalin. Four ˜3- to 4-mm long segments from the small intestine were embedded in paraffin, 5 μM thick sections were cut and stained with hematoxilin and eosin. The number of surviving crypts was counted 3.5 days after irradiation.
# LPA receptors (LPA1/2/3) = test: LPA receptor agonist/antagonist activity (Table 4); type: cell-based
# Description: Compounds were tested for their ability to induce or inhibit LPA-induced calcium transients in RH7777 rat hepatoma cells stably expressing LPA1, LPA2, and LPA3 receptors and in PC-3 that express LPA1-3 endogenously, using a FlexStation II automated fluorometer (Molecular Devices, Sunnyvale, Calif.).
# RH7777 cells stably expressing either LPA1, LPA2 or LPA3 or PC-3 cells were plated on poly-D lysine-coated black wall clear bottom 96-well plates (Becton Dickinson, San Jose, Calif.) with a density of 50000 cells/well, and cultured overnight. The culture medium (DMEM containing 10% FBS) was then replaced with modified Krebs solution (120 mM NaCl, 5 mM KCl, 0.62 mM MgSO4, 1.8 mM CaCl2, 10 mM HEPES, 6 mM glucose, pH 7.4) and the cells were serum starved for 6-8 hours (12 h for PC-3 cells). Cells were loaded with Fura-2 AM for 35 minutes in modified Krebs medium. The Fura-2 was removed before loading the plate in the FlexStation instrument by replacing the medium once again with 100 μl modified Krebs medium/well. Plates were incubated for 4 minutes in the instrument to allow for warming to 37° C. Changes in intracellular Ca^2+ concentration were monitored by measuring the ratio of emitted light intensity at 520 nm in response to excitation by 340 nm and 380 nm wavelength lights, respectively. Each well was monitored for 80-120 seconds. […] Time courses were recorded using the SoftMax Pro software (Molecular Devices, Sunnyvale, Calif.). Ca^+ transients were quantified automatically by calculating the difference between maximum and baseline ratio values for each well.
# IEC-6 cells [3] = test: DNA fragmentation assay in camptothecin-induced IEC-6 cells (Example 11, FIG. 7); type: cell-based; conditions: 20 μM camptothecin, 15 min pre-treatment, 6 hours
# Description: IEC-6 cells were obtained from the American Type Culture Collection (Manassas, Va.) and were grown in Dulbecco's modified Eagle medium (DMEM) supplemented with 10% fetal bovine serum, 10 μg/ml insulin, and 50 μg/ml gentamicin sulfate at 37° C. in a humidified 90% air/10% CO2 atmosphere. The medium was changed every other day. Cells between passage 15 and 21 were used for the experiments. Newly synthesized RxBio analogs at doses ranging from […] were used to pre-treat IEC-6 cells for 15 min. Apoptosis was induced by 20 μM camptothecin following the pre-treatment. DNA fragmentation was measured 6 hours after camptothecin treatment by enzyme-linked immunosorbent assay using the cell death detection ELISA^PLUS kit from Roche (Indianapolis, Ind.) following the instruction of the manufacturer. Briefly, cells were harvested and lysed in DNA lysis buffer for 30 min. Sample lysates were collected after centrifugation at 200 rpm for 10 min. 10 μl of supernatant was loaded individually in a 96-well streptavidin-coated plate and incubated with immunoreagents (anti-histone-biotin plus anti-DNA peroxidase conjugated antibody) on a shaker for 2 h. […] DNA absorbance was read at 405 nm in a microplate reader (PerkinElmer, Shelton, Conn.). Aliquots of samples were used to quantify protein concentration using the bicinchoninic acid kit (Pierce, Rockford, Ill.).
# T1 sequence (Q92633 whole entry): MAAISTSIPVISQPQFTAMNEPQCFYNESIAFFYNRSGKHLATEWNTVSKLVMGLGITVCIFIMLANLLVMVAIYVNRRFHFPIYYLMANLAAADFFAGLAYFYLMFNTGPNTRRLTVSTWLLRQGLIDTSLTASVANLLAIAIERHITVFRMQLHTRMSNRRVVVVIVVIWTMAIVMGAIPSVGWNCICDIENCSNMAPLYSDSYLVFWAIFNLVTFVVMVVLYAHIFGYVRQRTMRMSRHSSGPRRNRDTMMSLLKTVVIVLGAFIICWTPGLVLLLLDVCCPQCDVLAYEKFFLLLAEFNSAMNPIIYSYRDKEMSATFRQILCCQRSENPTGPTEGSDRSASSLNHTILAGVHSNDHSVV
Compound,Activity (LPA receptors (LPA1/2/3)),also measured
"CCCCCCCCC=CCCCCCCCCOP(O)(O)=S [8g, Thiophosphoric acid O-octadec-9-enyl ester]",–,"ligand property at LPA1 (FIG. 2A) (LPA1 receptor): agonist; inhibition of camptothecin-induced DNA fragmentation (IEC-6 cells [1]): comparable to that of LPA but supersedes it at concentrations above 3 μM; ligand property at LPA2 (FIG. 2B) (LPA2 receptor): agonist; ligand property at LPA3 (FIG. 2C) (LPA3 receptor): agonist; crypt survival ([2]; 200 μM into the stomach 2 h prior irradiation, FIG. 3): significantly (P>0.01) enhanced crypt survival; crypt survival, dose dependence ([2]; FIG. 4): dose-dependent enhancement of crypt survival; crypt survival in jejunum and ileum compared with LPA ([2]; γ-irradiated mice, FIG. 5): present in the jejunum and ileum and exceeded that of LPA"
CCCCCCCCCCCCOP(=O)(O)O [FAP 12],–,inhibition of camptothecin-induced DNA fragmentation (IEC-6 cells [1]): inhibited
"CCCCCCCCCCCCCCC(C(=O)O)C(=O)O [RxBVG-I-8, 2-Tetradecyl-malonic acid]",LPA2 agonist,–
"CCCCCCCC(CCCCCCC)OP(=O)(O)O.N.N [RxBVG-I-27, Ammonium phosphoryl-mono-(1-heptyl-octyl) ester]",Pan antago- nist (LPA1/2/3),–
"CCCCCCCC(CCCCCCC)OP(O)(O)=S [RxBVG-I-28, Thiophosphoric acid O-(1-heptyl-octyl) ester]",Pan antago- nist (LPA1/2/3),–
"CCCCCCCCCCCCCCCCCCC(COP(O)(O)=S)COP(O)(O)=S.N [RxBVG-I-64, Ammonium thiophosphoryl-O-(2-thiophosphonooxymethyl-eicosyl) ester]",LPA3 agonist,–
"CCCCCCCC/C=C/CCCCCCCCOP(O)(O)=S.N [RxBVG-I-67, Ammonium thiophosphoryl-O-octadec-9E-enyl ester]",LPA3 agonist,–
"CCCCCC/C=C\CCCCCCCCOP(O)(O)=S.N [RxBVG-I-81, Ammonium thiophosphoryl-O-hexadec-9Z-enyl ester]",Pan antago- nist (LPA1/2/3),–
"CCCC/C=C\CCCCCCCCCOP(O)(O)=S.N [RxBVG-I-82, Ammonium thiophosphoryl-O-pentadec-10Z-enyl ester]",Pan antago- nist (LPA1/2/3),–
"CCCCC/C=C\C/C=C\CCCCCCCCOP(O)(O)=S [RxBVG-I-83, Ammonium thiophosphoryl-O-octadeca-9Z,12Z-dienyl ester]",LPA2 agonist,–
"CCCCCCCCC1CC1CCCCCCCCOP(O)(O)=S.N (stereo not drawn) [RxBVG-I-93, Ammonium thiophosphoryl-O-[8-(2-octyl-cis-cyclopropyl)-octyl]ester]",LPA2 agonist,efficacy in DNA fragmentation assay (IEC-6 cells [3]): even more efficacy than did oleoyl thiophosphate
"BP(=O)(O)OCCCCCCCCCCCCCCCCCC [RxBVG-II-7, Potassium boranophosphoryl monooctadecyl ester]",LPA2 agonist,–
"BP(=O)(O)OCCCCCCCCCCCCCC [RxBVG-II-9, Potassium boranophosphoryl monotetradecyl ester]",LPA2 agonist,–
"BP(=O)(O)OCCCCCCCC [RxBVG-II-13, Potassium boranophosphoryl monooctyl ester]",LPA2 agonist,–
"CCCCCCC1CC1CCCCCCCCOP(O)(O)=S.N (centres unmarked) [RxBVG-II-22, Ammonium thiophosphoryl-O-[8-(2-hexyl-cyclopropyl)-octyl]ester]",LPA2 agonist,–
"[K+].[O-]P(O)(=S)OCCCCCCCCC1CC1 [RxBVG-II-23, Potassium thiophosphoryl-O-(8-cyclopropyl-octyl) ester]",LPA2 agonist,–
"CCCCCCC1CC1CCCCCCCCCCOP([O-])(O)=S.[K+] (centres unmarked) [RxBVG-II-34, Potassium thiophosphoryl-O-[10-(2-hexyl-cyclopropyl)-decyl]ester]",LPA2 agonist,–
"CCCCCC1CC1CC1CC1CCCCCCCCOP([O-])(O)=S.[K+] (centres unmarked) [RxBVG-II-35, Potassium thiophosphoryl-O-{8-[2-(2-pentyl-cyclopropylmethyl)-cyclopropyl]octyl}ester]",LPA2 agonist,–
"CCCCCCCCC1CC1CCCCCCCCCCOP([O-])(O)=S.[K+] (centres unmarked) [RxBVG-II-36, Potassium thiophosphoryl-O-[10-(2-octyl-cyclopropyl)-decyl]ester]",LPA2 agonist,–
CCCCCCCC/C=C\CCCCCCCC(=O)OC[C@@H](O)COP(=O)(O)O [oleoyl-LPA],–,inhibition of camptothecin-induced DNA fragmentation (IEC-6 cells [1]): inhibited
Ammonium thiophosphoryl-O-eicos-11Z-enyl ester [RxBVG-I-77],LPA2 agonist,–
Potassium boranophosphoryl monododecyl ester [RxBVG-II-11],LPA2 agonist,–
